# Results published in article PMC5011342, “A high throughput drug screening assay to identify compounds that promote oligodendrocyte differentiation using acutely dissociated and purified oligodendrocyte precursor cells” (BMC Research Notes, 2016).
# Like-named read-outs stand apart in the source and are kept apart here.
# Legend:
# [1] = system: acutely dissociated and purified rat OPCs; assay: Acute OL differentiation assay (MBP expression/cell, immunofluorescent image quantification); type: cell-based; details: sheet "All OLga data"; for activation at 0.4 µM / activation at 2 µM / activation at 10 µM: Rattus norvegicus
# Outline: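 This acute differentiation assay used purified rat OPCs from postnatal day 6–7 pups, seeded into PDL/laminin-coated 96-well plates in differentiation medium lacking PDGF and FGF. Compounds were applied in quadruplicate after a 1–2 h preincubation at 37 °C, 10 % CO2, with 0.1 % DMSO negative and 40 ng/ml T3 positive controls in eight wells. After fixation on DIV4, anti-MBP immunofluorescence images yielded MBP expression/cell.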
# [2] = system: expanded OPCs; assay: cells; details: for viability at 0.1 µM / viability at 1 µM / viability at 10 µM: Rattus norvegicus, 72 h; for 0.1 µM (% DMSO) / 1 µM (% DMSO) / 10 µM (% DMSO): alamarBlue viability of expanded OPCs; for 0.1 µM (% DMSO): compound at 0.1 µM; for 1 µM (% DMSO): compound at 1 µM; for 10 µM (% DMSO): compound at 10 µM
# Outline: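 Toxicity screen: compounds added at 0.1, 1 and 10 µM to PDGF-AA-expanded OPCs in 96-well plates, 3-day incubation at 37 °C, 10% CO2, then alamarBlue 1:10 for 4 h with fluorescence readout. Results set screening doses of 10/2, 2/0.4 or 0.4/0.08 µM.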
# [3] = test compound at 0.4 uM, NCC library screen, relative to quetiapine, read-out: 0.4 uM (% Quet)
# [4] = test compound at 2 uM, NCC library screen, relative to quetiapine, read-out: 2 uM (% Quet)
# [5] = read-out: 0.1 µM (% DMSO), alamarBlue viability, NCC library compound at 0.1 µM, sheet "All Tox data"
# [6] = read-out: 1 µM (% DMSO), alamarBlue viability, NCC library compound at 1 µM, sheet "All Tox data"
# [7] = read-out: 10 µM (% DMSO), alamarBlue viability, NCC library compound at 10 µM, sheet "All Tox data"
# [8] = test compound at 10 uM, NCC library screen, relative to quetiapine, read-out: 10 uM (% Quet)
# [9] = test compound at 2 uM, MBP expression relative to quetiapine, NCC library screen, read-out: 2 uM (% Quet)
# [10] = test compound at 10 uM, MBP expression relative to quetiapine, NCC library screen, read-out: 10 uM (% Quet)
# [11] = 2 uM test compound, relative to quetiapine, read-out: OL differentiation, 2 uM (% Quet)
Structure (SMILES),"activation at 2 µM [1, 4]","viability at 0.1 µM [2, 5]","viability at 1 µM [2, 6]","viability at 10 µM [2, 7]",0.1 µM (% DMSO) ([2]; relative to DMSO control),1 µM (% DMSO) ([2]; relative to DMSO control),10 µM (% DMSO) ([2]; relative to DMSO control),"activation at 2 µM [1, 9]","activation at 10 µM [1, 10]",other results
O=C(O[C@H]1[C@H](Oc2ccccc2COC(=O)C2(O)C=CCCC2=O)O[C@H](CO)[C@@H](O)[C@@H]1O)c1ccccc1 (stereo partly shown) [Tremulacin],-176%,86.6%,85.4%,20.7%,–,–,–,–,–,"activation at 0.4 µM [1, 3]: -46.7%"
Cc1cccc(Nc2ccccc2C(=O)O)c1C [Mefenamic Acid],-4%,–,–,–,92.7 % DMSO,91.8 % DMSO,83.6 % DMSO,–,–,"activation at 10 µM [1, 8]: -22.3%"
CC1=C(/C=C/C(C)=C/C=C/C(C)=C/C(=O)O)C(C)(C)CCC1 [Retinoic Acid],128%,–,–,–,144.5 % DMSO,188.5 % DMSO,58.3 % DMSO,–,–,"activation at 0.4 µM [1, 3]: -23%"
CCC1(c2ccc(N)cc2)CCC(=O)NC1=O (stereo not shown) [Aminoglutethimide],–,–,–,–,94.4 % DMSO,89.6 % DMSO,84.0 % DMSO,-11%,-7.7%,–
CO[C@@]1(NC(=O)Cc2cccs2)C(=O)N2C(C(=O)O)=C(COC(N)=O)CS[C@@H]21 [Cefoxitin],4.1%,–,–,–,88.0 % DMSO,88.0 % DMSO,85.5 % DMSO,–,–,"activation at 10 µM [1, 8]: 0.14%"
CO[C@H]1/C=C/O[C@@]2(C)Oc3c(C)c(O)c4c(O)c(c(/C=N/N5CCN(C6CCCC6)CC5)c(O)c4c3C2=O)NC(=O)/C(C)=C\C=C\[C@H](C)[C@H](O)[C@@H](C)[C@@H](O)[C@@H](C)[C@H](OC(C)=O)[C@@H]1C [Rifapentine],–,94.8%,73%,25.3%,89.9 % DMSO,78.4 % DMSO,40.0 % DMSO,-118%,–,"activation at 0.4 µM ([1]; 0.4 uM test compound, relative to quetiapine, read-out: OL differentiation, 0.4 uM (% Quet)): -16.7%; activation at 2 µM [1, 11]: -70.1%; activation at 0.4 µM ([1]; test compound at 0.4 uM, MBP expression relative to quetiapine, NCC library screen, read-out: 0.4 uM (% Quet)): -18.6%"
CCCCC/C=C\C/C=C\C/C=C\C/C=C\CCCC(=O)Nc1ccc(O)cc1 [AM 404],–,–,–,–,–,–,–,–,–,"OL differentiation, 0.08 uM (% Quet) ([1]; 0.08 uM test compound, relative to quetiapine): -17.8 % Quet; OL differentiation, 0.4 uM (% Quet) ([1]; 0.4 uM test compound, relative to quetiapine): -184.2 % Quet; 0.1 µM (% DMSO) ([2]; sheet All Tox data): 87.9 % DMSO; 1 µM (% DMSO) ([2]; sheet All Tox data): 33.1 % DMSO; 10 µM (% DMSO) ([2]; sheet All Tox data): 11.4 % DMSO"
C=CC1=C(C(=O)O)N2C(=O)[C@@H](NC(=O)/C(=N\O)c3csc(N)n3)[C@H]2SC1 [Cefdinir],13.5%,86.5%,90.2%,84.8%,–,–,–,–,–,"activation at 10 µM [1, 8]: 23%"
C[C@@H]1C[C@H]2[C@@H]3CCC4=CC(=O)C=C[C@]4(C)[C@@]3(F)[C@@H](O)C[C@]2(C)[C@@]1(O)C(=O)CO [Dexamethasone],–,–,–,–,108.6 % DMSO,109.4 % DMSO,109.8 % DMSO,1.1%,-24.5%,–
C[C@H]1COc2c(C3(N)CC3)c(F)cc3c(=O)c(C(=O)O)cn1c23 [Pazufloxacin],–,–,–,–,–,–,–,–,–,"activation at 2 µM [1, 11]: 1.9%; activation at 10 µM ([1]; 10 uM test compound, relative to quetiapine, read-out: OL differentiation, 10 uM (% Quet)): -11%; viability at 0.1 µM ([2]; read-out: 0.1 µM (% DMSO), alamarBlue viability of expanded OPCs, compound at 0.1 µM, sheet All Tox data): 95.3%; viability at 1 µM ([2]; read-out: 1 µM (% DMSO), alamarBlue viability of expanded OPCs, compound at 1 µM, sheet All Tox data): 98%; viability at 10 µM ([2]; read-out: 10 µM (% DMSO), alamarBlue viability of expanded OPCs, compound at 10 µM, sheet All Tox data): 104%"
CCCC1O[C@@H]2C[C@H]3[C@@H]4CCC5=CC(=O)C=C[C@]5(C)[C@H]4[C@@H](O)C[C@]3(C)[C@]2(C(=O)CO)O1 (stereo partly shown) [Budesonide],–,–,–,–,112.0 % DMSO,115.9 % DMSO,95.7 % DMSO,20.2%,-2.2%,–
O=C(CCCN1CCC(O)(c2ccc(Cl)cc2)CC1)c1ccc(F)cc1 [Haloperidol],4.1%,64%,69.1%,45.7%,–,–,–,–,–,"activation at 0.4 µM [1, 3]: -22.3%"
CC1(C)S[C@@H]2[C@H](NC(=O)COc3ccccc3)C(=O)N2[C@H]1C(=O)O [Penicillin V],–,–,–,–,96.1 % DMSO,96.3 % DMSO,93.4 % DMSO,14.6%,6.4%,–
